Measurements from PMC8596125, “Self‐Stabilized Supramolecular Assemblies Constructed from PEGylated Dendritic Peptide Conjugate for Augmenting Tumor Retention and Therapy” (Advanced Science, 2021).

Test system: A549 human non-small cell lung tumor
Assay: In vivo photodynamic therapy, A549 xenograft model
Design: species or system mouse
Details: nude mice with A549 tumors, i.v. 5 mg Ppa kg-1 on day 1, 14, 21, 28, 660 nm 200 mW cm-2 8 min, n = 5
Method: and stained by the terminal deoxynucleotidyl transferase dUTP nick end labeling (TUNEL) and CD31 for histology studies.
For studies with an A549 human non-small cell lung tumor model, nude mice were randomly allocated into three groups (n= 5): saline (control), Ppa, and SSAs when the average tumor volume reached 50 mm3. Saline, Ppa, and SSAs (5 mg Ppa kg-1) were injected intravenously on day 1, 14, 21 and 28. At 3 d post injection, the tumors from groups Ppa, and SSAs were irradiated with a 660 nm laser (200 mW cm-2, 8 min). The tumor growth was monitored and the tumor size was measured every 3 d. The mice were sacrificed on day 61 after treatment.
1.3.16 RNA-seq and enriched signaling pathways analysis
4T1 cells (106/culture) were treated by SSAs and free Ppa with or without laser.
Untreated cells were set as a control. Total RNA was extracted (TRIzol Reagent, Thermo Fisher Scientific, USA) and rRNAs were removed by Ribo-zero™ rRNA Removal Kit (Epicentre, CA, USA). Relative abundance of transcripts was calculated with kallisto. The raw RNA-Seq count data were processed by DESeq R packages to obtain differentially expressed genes (DEGs).[4] […]
Enrichment analyses were performed according to the KEGG database. For gene set enrichment analysis (GSEA), all gene sets were analyzed against the curated gene sets […]

`C=Cc1c(C)c2cc3nc(c4c5[nH]c(cc6nc(cc1[nH]2)C(C)=C6CC)c(C)c5C(=O)C4)[C@@H](CCC(=O)O)[C@@H]3C` [Ppa, pyropheophorbide a] was tested, and the Tumor growth was “modest tumor growth suppression”.
